Results on eight compounds are retold here after ChEMBL document CHEMBL3785001, “New pentasubstituted pyrrole hybrid atorvastatin-quinoline derivatives with antiplasmodial activity” (Bioorg Med Chem Lett, 2016).

As a reminder, the IC50 is the concentration that inhibits the measured activity by half.

Data set [1] deals with Plasmodium falciparum. The experiment in a line: Antimalarial activity against chloroquine-sensitive Plasmodium falciparum NF54 infected in human erythrocytes incubated for 48 hrs by [3H]hypoxanthine incorporation assay. Type of data set: functional, organism-based.
Data set [2] relates to Plasmodium falciparum. In words: microbe, parasite or virus in culture. To be noted: W2, 48 h.
Data set [3] in a line: Cytotoxicity against African green monkey BGM cells assessed as cell viability after 24 hrs by neutral red assay. Format: cell-based. To be noted: chlorocebus aethiops, read-out: MLD50.
The next data set can be described thus: in vitro. To be noted: monkey.
The test system of data set [4] is Plasmodium falciparum. The experiment in a line: Potency index, ratio of primaquine IC50 to compound IC50 for chloroquine-resistant Plasmodium falciparum W2 infected in human red blood cells. Format: functional.

In turn, `C[C@@H]1CC[C@H]2[C@@H](C)C(c3cccn3C)O[C@@H]3O[C@@]4(C)CC[C@@H]1[C@]32OO4` (some centres undefined) returned an IC50 with Plasmodium falciparum [1] of 0.0046 µM.

`CCCCn1c(-c2ccc(F)cc2)c(-c2ccccc2)c(C(=O)Nc2ccccc2)c1C(C)C` came in with an IC50 in the data set with Plasmodium falciparum [2] of 6.39 µM. Further, the CC50 at 24 h in data set [3] was greater than 2200 µM. In addition, the selectivity ratio in “in vitro” was greater than 345.

Turning to `CC(C)c1c(C(=O)Nc2ccccc2)c(-c2ccccc2)c(-c2ccc(F)cc2)n1CCCNc1ccnc2cc(Cl)ccc12`, in the data set on Plasmodium falciparum [2], it took 0.65 µM to reach half-maximal inhibition (IC50). Also, in the data set with Plasmodium falciparum [4], the “Ratio IC50” value is 5. Moreover, the CC50 at 24 h in data set [3] was 136 µM. The selectivity ratio in “in vitro” turned out to be 210.

Turning to `CC(C)c1c(C(=O)Nc2ccccc2)c(-c2ccccc2)c(-c2ccc(F)cc2)n1CCNc1ccnc2cc(Cl)ccc12`, in the data set on Plasmodium falciparum [2], the IC50 is 0.99 µM. The “Ratio IC50” value with Plasmodium falciparum [4] stood at 5. Also, the CC50 at 24 h in data set [3] is greater than 1660 µM. Also, in the data set “in vitro”, the selectivity ratio was greater than 1680.

With `COc1cc(NC(C)CCCn2c(-c3ccc(F)cc3)c(-c3ccccc3)c(C(=O)Nc3ccccc3)c2C(C)C)c2ncccc2c1` (centres undefined), the IC50 with Plasmodium falciparum [2] came to 1.41 µM. The “Ratio IC50” value in the data set with Plasmodium falciparum [4] is 5. The CC50 at 24 h in data set [3] was greater than 1560 µM. Further, the selectivity ratio in the data set “in vitro” is greater than 1110.

The compound `CC(C)c1c(C(=O)Nc2ccccc2)c(-c2ccccc2)c(-c2ccc(F)cc2)n1CCCCNc1ccnc2cc(Cl)ccc12` showed a 50% inhibitory concentration (IC50) in the data set with Plasmodium falciparum [2] of 0.4 µM. The “Ratio IC50” value in the data set with Plasmodium falciparum [4] is given as 5. The CC50 at 24 h in data set [3] was 187 µM. For the same compound, in “in vitro”, the selectivity ratio worked out at 468.

Compound `CC(C)c1c(C(=O)Nc2ccccc2)c(-c2ccccc2)c(-c2ccc(F)cc2)n1CC[C@@H](O)C[C@@H](O)CC(=O)O` [ATORVASTATIN] yielded an IC50 in the data set on Plasmodium falciparum [2] of 10.3 µM.

Compound `COc1cc(NC(C)CCCN)c2ncccc2c1` (centres undefined) [PRIMAQUINE] had an IC50 in the data set with Plasmodium falciparum [2] of 1.89 µM. Moreover, the CC50 at 24 h in data set [3] was 452 µM. For the same compound, the selectivity ratio in the data set “in vitro” amounted to 239.
